From PubChem BioAssay AID1963438 (Molecular Pharmacology Branch, DTP, NCI, 2024)
Where “and” joins values, the source holds several entries; their conditions need not be identical. Equal entries are not always repeated.

System: NCI-H510 multicellular tumor spheroid growth, % test/control
Assay: Anticancer human tumor NCI-H510 cell line growth inhibition [Asc];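 note: spheroids exposed to agents for 7 days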;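 for viability, T/C: 100% = DMSO vehicle control wells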
Details: for IC50: curve of first compound; for viability, T/C: stronger effect = lower value; active = viability on the fitted dose curve at most 10% of control; inactive = the rest
How it was run: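 Concentration series start at each agent's clinical Cmax, or at 10 microM when none is established, and drop in half-log steps; agents are applied alone or together to complex spheroids built with HUVEC and hMSC.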

[1] = second compound 0.01 µM, first compound 0.0316 µM
[2] = second compound 0.01 µM, first compound 0.1 µM
[3] = second compound 0.01 µM, first compound 0.316 µM
[4] = second compound 0.01 µM, first compound 1 µM
[5] = second compound 0.01 µM, first compound 3.16 µM
[6] = second compound 0.01 µM, first compound 10 µM
[7] = second compound 0.0316 µM, first compound 0.0316 µM
[8] = second compound 0.0316 µM, first compound 0.1 µM
[9] = second compound 0.0316 µM, first compound 0.316 µM
[10] = second compound 0.0316 µM, first compound 1 µM
[11] = second compound 0.0316 µM, first compound 3.16 µM
[12] = second compound 0.0316 µM, first compound 10 µM
[13] = second compound 0.1 µM, first compound 0.0316 µM
[14] = second compound 0.1 µM, first compound 0.1 µM
[15] = second compound 0.1 µM, first compound 0.316 µM
[16] = second compound 0.1 µM, first compound 1 µM
[17] = second compound 0.1 µM, first compound 3.16 µM
[18] = second compound 0.1 µM, first compound 10 µM
[19] = second compound 0.316 µM, first compound 0.0316 µM
[20] = second compound 0.316 µM, first compound 0.1 µM
[21] = second compound 0.316 µM, first compound 0.316 µM
[22] = second compound 0.316 µM, first compound 1 µM
[23] = second compound 0.316 µM, first compound 3.16 µM
[24] = second compound 0.316 µM, first compound 10 µM
[25] = second compound 1 µM, first compound 0.0316 µM
[26] = second compound 1 µM, first compound 0.1 µM
[27] = second compound 1 µM, first compound 0.316 µM
[28] = second compound 1 µM, first compound 1 µM
[29] = second compound 1 µM, first compound 3.16 µM
[30] = second compound 1 µM, first compound 10 µM

C#Cc1c(F)ccc2cc(O)cc(-c3ncc4c(N5CC6CCC(C5)N6)nc(OCC56CCCN5CC(F)C6)nc4c3F)c12 (stereo not drawn) + CNC(C)C(=O)NC1CN(S(=O)(=O)c2cccc(S(=O)(=O)N3CCC4CCC(C(=O)NC(c5ccccc5)c5ccccc5)N4C(=O)C(NC(=O)C(C)NC)C3)c2)CCC2CCC(C(=O)NC(c3ccccc3)c3ccccc3)N2C1=O
inactive: viability, T/C (second compound 0.00316 µM, first compound 0.0316 µM) 97.9% | viability, T/C (second compound 0.00316 µM, first compound 0.1 µM) 101% | viability, T/C (second compound 0.00316 µM, first compound 0.316 µM) 93.2% | viability, T/C (second compound 0.00316 µM, first compound 1 µM) 87.7% | viability, T/C (second compound 0.00316 µM, first compound 3.16 µM) 102% | viability, T/C (second compound 0.00316 µM, first compound 10 µM) 104% | viability, T/C [1] 109% | viability, T/C [2] 98.3% | viability, T/C [3] 97.1% | viability, T/C [4] 99.7% | viability, T/C [5] 107% | viability, T/C [6] 93.3% | viability, T/C [7] 103% | viability, T/C [8] 97.7% | viability, T/C [9] 96.7% | viability, T/C [10] 106% | viability, T/C [11] 114% | viability, T/C [12] 90.8% | viability, T/C [13] 112% | viability, T/C [14] 103% | viability, T/C [15] 97.8% | viability, T/C [16] 97.8% | viability, T/C [17] 112% | viability, T/C [18] 96.6% | viability, T/C [19] 114% | viability, T/C [20] 101% | viability, T/C [21] 104% | viability, T/C [22] 104% | viability, T/C [23] 97.7% | viability, T/C [24] 114% | viability, T/C [25] 120% | viability, T/C [26] 107% | viability, T/C [27] 108% | viability, T/C [28] 95.7% | viability, T/C [29] 104% | viability, T/C [30] 114%
> 10000 nM: IC50 (second compound 0.00316 µM) | IC50 (second compound 0.01 µM) | IC50 (second compound 0.0316 µM) | IC50 (second compound 0.1 µM) | IC50 (second compound 0.316 µM) | IC50 (second compound 1 µM)

Cc1nc(N2CCC3(CC2)COC(C)C3N)c(CO)nc1Sc1ccnc(N)c1Cl (stereo not drawn) + Cc1c(S(C)(=O)=O)c(-c2cc(F)cc(N3CCN(c4ccc(NS(=O)(=O)c5ccc(NC(CCN6CCC(C(=O)OCCCP(=O)(O)O)CC6)CSc6ccccc6)c(S(=O)(=O)C(F)(F)F)c5)cc4)CC3)c2)c(-c2ccc(Cl)cc2)n1C(C)C
inactive: viability, T/C (second compound 0.1 µM, first compound 0.00949 µM) 126% | viability, T/C (second compound 0.1 µM, first compound 0.03 µM) 122% | viability, T/C (second compound 0.1 µM, first compound 0.0949 µM) 112% | viability, T/C (second compound 0.1 µM, first compound 0.3 µM) 111% | viability, T/C (second compound 0.1 µM, first compound 0.949 µM) 128% | viability, T/C (second compound 0.1 µM, first compound 3 µM) 117% | viability, T/C (second compound 0.316 µM, first compound 0.00949 µM) 125% | viability, T/C (second compound 0.316 µM, first compound 0.03 µM) 130% | viability, T/C (second compound 0.316 µM, first compound 0.0949 µM) 136% | viability, T/C (second compound 0.316 µM, first compound 0.3 µM) 127% | viability, T/C (second compound 0.316 µM, first compound 0.949 µM) 111% | viability, T/C (second compound 0.316 µM, first compound 3 µM) 132% | viability, T/C (second compound 1 µM, first compound 0.00949 µM) 92.8% | viability, T/C (second compound 1 µM, first compound 0.03 µM) 139% | viability, T/C (second compound 1 µM, first compound 0.0949 µM) 122% | viability, T/C (second compound 1 µM, first compound 0.3 µM) 102% | viability, T/C (second compound 1 µM, first compound 0.949 µM) 118% | viability, T/C (second compound 1 µM, first compound 3 µM) 130% | viability, T/C (second compound 3.16 µM, first compound 0.00949 µM) 132% | viability, T/C (second compound 3.16 µM, first compound 0.03 µM) 128% | viability, T/C (second compound 3.16 µM, first compound 0.0949 µM) 137% | viability, T/C (second compound 3.16 µM, first compound 0.3 µM) 123% | viability, T/C (second compound 3.16 µM, first compound 0.949 µM) 119% | viability, T/C (second compound 3.16 µM, first compound 3 µM) 118% | viability, T/C (second compound 10 µM, first compound 0.00949 µM) 133% | viability, T/C (second compound 10 µM, first compound 0.03 µM) 123% | viability, T/C (second compound 10 µM, first compound 0.0949 µM) 125% | viability, T/C (second compound 10 µM, first compound 0.3 µM) 94% | viability, T/C (second compound 10 µM, first compound 0.949 µM) 114% | viability, T/C (second compound 10 µM, first compound 3 µM) 95.2%
> 3000 nM: IC50 (second compound 0.1 µM) | IC50 (second compound 0.316 µM) | IC50 (second compound 1 µM) | IC50 (second compound 3.16 µM) | IC50 (second compound 10 µM)

COc1c(OCCCN2CCOCC2)ccc2c3n(c(=NC(=O)c4cnc(N)nc4)nc12)CCN3 + Cc1c(S(C)(=O)=O)c(-c2cc(F)cc(N3CCN(c4ccc(NS(=O)(=O)c5ccc(NC(CCN6CCC(C(=O)OCCCP(=O)(O)O)CC6)CSc6ccccc6)c(S(=O)(=O)C(F)(F)F)c5)cc4)CC3)c2)c(-c2ccc(Cl)cc2)n1C(C)C
231 nM: IC50 (second compound 10 µM)
inactive: viability, T/C (second compound 0.1 µM, first compound 0.00316 µM) 112% | viability, T/C (second compound 0.1 µM, first compound 0.01 µM) 106% | viability, T/C [13] 88.9% | viability, T/C [14] 89.3% | viability, T/C [15] 96.4% | viability, T/C [16] 84.3% | viability, T/C (second compound 0.316 µM, first compound 0.00316 µM) 102% | viability, T/C (second compound 0.316 µM, first compound 0.01 µM) 99.6% | viability, T/C [19] 70.3% | viability, T/C [20] 75% | viability, T/C [21] 89.1% | viability, T/C [22] 53.6% | viability, T/C (second compound 1 µM, first compound 0.00316 µM) 99.8% | viability, T/C (second compound 1 µM, first compound 0.01 µM) 98.1% | viability, T/C [25] 106% | viability, T/C [26] 91.2% | viability, T/C [27] 67.5% | viability, T/C [28] 86.1% | viability, T/C (second compound 3.16 µM, first compound 0.00316 µM) 89.4% | viability, T/C (second compound 3.16 µM, first compound 0.01 µM) 91.6% | viability, T/C (second compound 3.16 µM, first compound 0.0316 µM) 82.6% | viability, T/C (second compound 3.16 µM, first compound 0.1 µM) 80% | viability, T/C (second compound 3.16 µM, first compound 0.316 µM) 82.6% | viability, T/C (second compound 3.16 µM, first compound 1 µM) 63.8% | viability, T/C (second compound 10 µM, first compound 0.00316 µM) 66% | viability, T/C (second compound 10 µM, first compound 0.01 µM) 98.4% | viability, T/C (second compound 10 µM, first compound 0.0316 µM) 70.9% | viability, T/C (second compound 10 µM, first compound 0.1 µM) 96.3% | viability, T/C (second compound 10 µM, first compound 0.316 µM) 37.6% | viability, T/C (second compound 10 µM, first compound 1 µM) 32.2%
> 1000 nM: IC50 (second compound 0.1 µM) | IC50 (second compound 0.316 µM) | IC50 (second compound 1 µM) | IC50 (second compound 3.16 µM)

C=C(F)C(=O)N1CCN(c2nc(OCC3CCCN3C)nc3c2CCN(c2cccc4cccc(Cl)c24)C3)CC1CC#N (stereo not drawn) + CNC(C)C(=O)NC1CN(S(=O)(=O)c2cccc(S(=O)(=O)N3CCC4CCC(C(=O)NC(c5ccccc5)c5ccccc5)N4C(=O)C(NC(=O)C(C)NC)C3)c2)CCC2CCC(C(=O)NC(c3ccccc3)c3ccccc3)N2C1=O
inactive: viability, T/C [1] 125% | viability, T/C [2] 117% | viability, T/C [3] 108% | viability, T/C [4] 116% | viability, T/C [7] 115% | viability, T/C [8] 101% | viability, T/C [9] 104% | viability, T/C [10] 108% | viability, T/C [13] 102% | viability, T/C [14] 119% | viability, T/C [15] 110% | viability, T/C [16] 96.4% | viability, T/C [19] 97.4% | viability, T/C [20] 124% | viability, T/C [21] 115% | viability, T/C [22] 89.4% | viability, T/C [25] 115% | viability, T/C [26] 105% | viability, T/C [27] 108% | viability, T/C [28] 104%
active: viability, T/C [5] 2.75% | viability, T/C [6] 0.14% | viability, T/C [11] 1.63% | viability, T/C [12] 0.13% | viability, T/C [17] 1.1% | viability, T/C [18] 0.14% | viability, T/C [23] 4.39% | viability, T/C [24] 0.13% | viability, T/C [29] 0.85% | viability, T/C [30] 0.22%
1750 nM: IC50 (second compound 0.1 µM)
1960 nM: IC50 (second compound 0.01 µM)
1700 nM: IC50 (second compound 0.316 µM)
1860 nM: IC50 (second compound 0.0316 µM)
1830 nM: IC50 (second compound 1 µM)

Cn1ncnc1[C@H]1c2n[nH]c(=O)c3cc(F)cc(c23)N[C@@H]1c1ccc(F)cc1
inactive: viability, T/C (compound 0.000316 µM) 106% and 114% (2×) | viability, T/C (compound 0.001 µM) 98.2% and 93.5% and 70.4% | viability, T/C (compound 0.00316 µM) 80.9% and 92.1% and 86.5% | viability, T/C (compound 0.01 µM) 23.2% and 96.1% and 24.8% | viability, T/C (compound 0.0316 µM) 14.6% and 83.9% and 22.1% | viability, T/C (compound 0.1 µM) 12.7% and 99.4% and 18.4%
